According to patent publication US8986957B2, “Cell culture medium” (Novartis AG, priority 2010, dated 2015):

Experiments:
[1] = tested on: CHO cells expressing mAb3 and mAb4
Description: In a further set of experiments, choline chloride is added in various concentrations (40; 80; 120; 160, 200; 240; 500; 840; 1000; 3000 und 5000 mg/l in total) to powder growth medium. The media thus obtained are used for producing mAb3 and mAb4, respectively, generally as outlined above.
Normalized antibody concentrations, normalized viable cell densities, and viabilities, for mAb3 and in addition for mAb4 the normalized cell specific productivity for the whole duration of the cultivation (13 resp. 17 days) are further depicted in FIG. 14 to FIG. 24.

[2] = tested on: CHO cells expressing mAb3; settings: higher concentrations of choline chloride in production medium vs standard 240 mg/L
Description: Three aliquots of this parental cell line are transfected to express three different monoclonal antibodies mAb1, mAb2, mAb3, respectively.
All nine shake flasks (three for each experiment) are run under the same conditions, except for the medium. The conditions involve a fed-batch culture with two daily bolus feeds starting at days 3 and 5 with a feeding rate of 2 and 0.4% of the initial culture volume per day; a temperature shift from 36.5° C. to 33° C. at day 5; 10% CO2 in the incubator; a shaking rate of 150 rpm (stroke radius=25 mm). The cell growth/viability of the cells as well as the resulting titer of recombinant antibody expressed are determined.

[3] = choline chloride 3000 mg/l and more

**Q.** With `C[N+](C)(C)CCO.[Cl-]` [choline chloride] as the compound, how does the “viability and antibody concentration” value ([1]; 40 mg/l choline chloride in total, after 13 or 17 days in culture) read?
**A.** The value was “lowest values”.

**Q.** What about the viability ([1]; all choline concentrations higher than 40 mg/l) of the same compound?
**A.** Its viability is “higher”.

**Q.** And the cell growth [1, 3]?
**A.** The cell growth was “do not grow”.

**Q.** And the “viability of the cells” value [1, 3]?
**A.** Its value is “do not negatively affect the viability”.

**Q.** What about the normalized antibody concentration ([1]; choline chloride 3000 mg/l and more, after 13 or 17 days) of the same compound?
**A.** The normalized antibody concentration was “below 1”.

**Q.** And the “cell growth or polypeptide titer” value [2]?
**A.** Its value is “did not result in improved cell growth or polypeptide titer”.
